The values that follow come from patent US20230117034A1, “PYRAZOLOTRIAZINES” (Bayer Aktiengesellschaft, priority 2019, published 2023).

In assay [1] the test system is MDA-MB-231, human breast cancer cells. As to the kind of experiment: Proliferation assay MDA-MB-231 (crystal violet, 4 days). The format is cell-based. To be noted: Homo sapiens, MDA-MB-231, 96 h, MDA-MB-231 cells, median, read-out: Prolif-MDA MB-231, IC50-[mol/l] (median). The gist of the method: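 Crystal violet proliferation read-out after 4 days of compound exposure (0.01-10 µmol/L; solvent 0.1% DMSO). Extinction at 595 nm, set between zero-point (0%) and vehicle (100%), fitted with 4 parameters to give IC50.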

In assay [2] the test system is BRCA1 mRNA expression in MDA-MB-231 cells. As to the kind of experiment: qRT-PCR assay: BRCA1 mRNA expression in MDA-MB-231. The format is cell-based, human. Conditions: Homo sapiens, MDA-MB-231, Inhibition of BRCA1 mRNA expression in MDA-MB-231 cells; median; read-out: RTqPCR-MDA-MB-231, IC50, BRCA1 (median). Summed up:
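Human breast cancer cells, 200,000/well, were treated with test agents for 24 h without interruption after a 24 h settling period. Gene expression came from qPCR on cDNA made from 600 ng RNA, relative to GAPDH.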
(In general: Quantitative PCR measures a nucleic acid by following its amplification.)

A further assay concerns the target T1, CDK2/CycE (Homo sapiens, UniProt P24941).
T1 construct: purchased ProQinase GmbH (Freiburg, Germany); host or cells: insect cells (Sf9)
As to the kind of experiment: CDK2/CycE kinase assay (TR-FRET, 2 mM ATP). The assay is classed as biochemical. Conditions: 2 mM ATP (high ATP); median; read-out: CDK2/CyclinE, 2 mM ATP (high ATP), IC50 (median). The gist of the method:
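Biotin-peptide phosphorylation (0.75 µM substrate, 2 mM ATP final, 25 min, 22 °C) by Sf9-expressed GST-CDK2/GST-CycE, after a 15-min compound pre-binding step. Inhibition scaled between enzyme-free (100%) and uninhibited (0%) wells.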
For orientation: Time-resolved FRET reads energy transfer from a long-lived donor to a nearby acceptor.

`Fc1cccc2[nH]c(CNc3nc(N4CCOCC4)nc4c(C5CC5)cnn34)nc12` [Example 188, 8-cyclopropyl-N-[(4-fluoro-1H-benzimidazol-2-yl)methyl]-2-(morpholin-4-yl)pyrazolo[1,5-a][1,3,5]triazin-4-amine]: the IC50 is 16.1 nM in assay [1], 3.06 nM in assay [2] and 15000 nM on CDK2/CycE.
In the same order, the values of `Fc1cccc2[nH]c(CNc3nc(N4CCNCC4)nc4c(C5CC5)cnn34)nc12` [Example 182, 8-cyclopropyl-N-[(4-fluoro-1H-benzimidazol-2-yl)methyl]-2-(piperazin-1-yl)pyrazolo[1,5-a][1,3,5]triazin-4-amine] are 10.2 nM, 3.32 nM and > 20000 nM.
Consider `O[C@H]1C[C@@H](Nc2nc(NCc3nc4ccccc4[nH]3)n3ncc(Br)c3n2)C1` [Example 234, cis-3-[(4-{[(1H-benzimidazol-2-yl)methyl]amino}-8-bromopyrazolo[1,5-a][1,3,5]triazin-2-yl)amino]cyclobutan-1-ol], for which the IC50 amounted to 59.9 nM in assay [1], 5.76 nM in assay [2] and 2730 nM at CDK2/CycE.
Regarding `CN1CC[C@H]2CN(c3nc(NCc4nc5ccccc5[nH]4)n4ncc(Br)c4n3)C[C@H]21` [Example 179, N-[(1H-benzimidazol-2-yl)methyl]-8-bromo-2-[(3aS,6aS)-1-methylhexahydropyrrolo[3,4-b]pyrrol-5 (1H)-yl]pyrazolo[1,5-a][1,3,5]triazin-4-amine], the IC50 was 74.8 nM in assay [1], 21.7 nM in assay [2] and > 20000 nM on CDK2/CycE.
In the same order, the values of `Fc1ccc2[nH]c(CNc3nc(N4C[C@@H]5C[C@H]4CO5)nc4c(C5CC5)cnn34)nc2c1F` [Example 173, 8-cyclopropyl-N-[(4,5-difluoro-1H-benzimidazol-2-yl)methyl]-2-[(1S,4S)-2-oxa-5-azabicyclo[2.2.1]heptan-5-yl]pyrazolo[1,5-a][1,3,5]triazin-4-amine] are 20.8 nM, 4.58 nM and > 20000 nM.
For the compound `CN(CCN1CCCC1)c1nc(NCc2nc3ccccc3[nH]2)n2ncc(Br)c2n1` [Example 239, N4-(1H-benzimidazol-2-ylmethyl)-8-bromo-N2-methyl-N2-(2-pyrrolidin-1-ylethyl)pyrazolo[1,5-a][1,3,5]triazine-2,4-diamine], the IC50 is 561 nM in assay [1] and > 20000 nM on CDK2/CycE.
For the compound `Cc1ccc2[nH]c(CNc3nc(N4C[C@@H](C)N[C@@H](C)C4)nc4c(Br)cnn34)nc2c1` [Example 209, 8-bromo-2-[(3R,5S)-3,5-dimethylpiperazin-1-yl]-N-[(5-methyl-1H-benzimidazol-2-yl)methyl]pyrazolo[1,5-a][1,3,5]triazin-4-amine], the IC50 in assay [1] is 2.26 nM; in assay [2], 1.67 nM; at CDK2/CycE, > 20000 nM.
The like results for `COc1cccc2[nH]c(CNc3nc(N4C[C@@H](C)N[C@@H](C)C4)nc4c(C5CC5)cnn34)nc12` [Example 212, 8-cyclopropyl-2-[(3R,5S)-3,5-dimethylpiperazin-1-yl]-N-[(4-methoxy-1H-benzimidazol-2-yl)methyl]pyrazolo[1,5-a][1,3,5]triazin-4-amine] were, in that order, 5.45 nM, 5.49 nM and > 19000 nM.
With `CN1CCN(c2nc(NCc3nc4ccccc4[nH]3)n3ncc(-c4ccncc4)c3n2)CC1` [Example 242, N-[(1H-benzimidazol-2-yl)methyl]-2-(4-methylpiperazin-1-yl)-8-(pyridin-4-yl)pyrazolo[1,5-a][1,3,5]triazin-4-amine], the IC50 in assay [1] is 253 nM; in assay [2] it was 514 nM; on CDK2/CycE, > 20000 nM.
In the same order, the values of `OC[C@@H]1CCCCN1c1nc(NCc2nc3cc(F)ccc3[nH]2)n2ncc(C3CC3)c2n1` [Example 191, [(2S)-1-(8-cyclopropyl-4-{[(5-fluoro-1H-benzimidazol-2-yl)methyl]amino}pyrazolo[1,5-a][1,3,5]triazin-2-yl)piperidin-2-yl]methanol] are 9.68 nM, 2.18 nM and 1770 nM.
As for `Brc1cnn2c(NCc3nc4ccccc4[nH]3)nc(NCCN3CCCC3)nc12` [Example 235, N4-(1H-benzimidazol-2-ylmethyl)-8-bromo-N2-(2-pyrrolidin-1-ylethyl)pyrazolo[1,5-a][1,3,5]triazine-2,4-diamine], the IC50 was 315 nM in assay [1] and > 20000 nM on CDK2/CycE.
For the compound `CC(C)c1cnn2c(NCc3nc4ccccc4[nH]3)nc(Nc3ccccc3)nc12` [Example 13, N^4-[(1H-benzimidazol-2-yl)methyl]-N^2-phenyl-8-(propan-2-yl)pyrazolo[1,5-a][1,3,5]triazine-2,4-diamine], the IC50 at CDK2/CycE was > 20000 nM.
For `CN1CC2CCC(C1)N2c1nc(NCc2nc3ccccc3[nH]2)n2ncc(Br)c2n1` [Example 226, N-(1H-benzimidazol-2-ylmethyl)-8-bromo-2-(3-methyl-3,8-diazabicyclo[3.2.1]octan-8-yl)pyrazolo[1,5-a][1,3,5]triazin-4-amine], the IC50 in assay [1] is 162 nM; on CDK2/CycE, > 20000 nM.
For `C[C@@H]1CN(c2nc(NCc3nc4ccccc4[nH]3)n3ncc(Br)c3n2)CCN1` [Example 168, N-[(1H-benzimidazol-2-yl)methyl]-8-bromo-2-[(3R)-3-methylpiperazin-1-yl]pyrazolo[1,5-a][1,3,5]triazin-4-amine], the IC50 in assay [2] is 2.46 nM; at CDK2/CycE, 12300 nM.
For `CN1CCCC2CN(c3nc(NCc4nc5ccccc5[nH]4)n4ncc(Br)c4n3)CC21` (stereo not shown) [Example 231, N-[(1H-benzimidazol-2-yl)methyl]-8-bromo-2-(1-methyloctahydro-6H-pyrrolo[3,4-b]pyridin-6-yl)pyrazolo[1,5-a][1,3,5]triazin-4-amine], the figures for the IC50 (in assay [1]; on CDK2/CycE) were 110 nM and 12400 nM, respectively.
The like results for `OCCNc1nc(NCc2nc3ccccc3[nH]2)n2ncc(Br)c2n1` [Example 228, 2-[(4-{[(1H-benzimidazol-2-yl)methyl]amino}-8-bromopyrazolo[1,5-a][1,3,5]triazin-2-yl)amino]ethan-1-ol] were, in that order, 434 nM and 9210 nM.
For `CN(C)[C@@H]1CCN(c2nc(NCc3nc4ccccc4[nH]3)n3ncc(Br)c3n2)C1` [Example 178, N-[(1H-benzimidazol-2-yl)methyl]-8-bromo-2-[(3R)-3-(dimethylamino)pyrrolidin-1-yl]pyrazolo[1,5-a][1,3,5]triazin-4-amine], the IC50 in assay [1] is 501 nM; at CDK2/CycE it was > 20000 nM.
In the same order, the values of `CN(C)[C@H]1CCN(c2nc(NCc3nc4ccccc4[nH]3)n3ncc(Br)c3n2)C1` [Example 177, N-[(1H-benzimidazol-2-yl)methyl]-8-bromo-2-[(3S)-3-(dimethylamino)pyrrolidin-1-yl]pyrazolo[1,5-a][1,3,5]triazin-4-amine] are 332 nM and > 20000 nM.
With `COCCNc1nc(NCc2nc3ccccc3[nH]2)n2ncc(Br)c2n1` [Example 230, N4-(1H-benzimidazol-2-ylmethyl)-8-bromo-N2-(2-methoxyethyl)pyrazolo[1,5-a][1,3,5]triazine-2,4-diamine], the IC50 in assay [1] is 261 nM; at CDK2/CycE, 10100 nM.
Turning to `CN(CCO)c1nc(NCc2nc3ccccc3[nH]2)n2ncc(Br)c2n1` [Example 237, 2-[(4-{[(1H-benzimidazol-2-yl)methyl]amino}-8-bromopyrazolo[1,5-a][1,3,5]triazin-2-yl)(methyl)amino]ethan-1-ol], the IC50 is 164 nM in assay [1] and 4940 nM at CDK2/CycE.
The like results for `CO[C@H]1CCN(c2nc(NCc3nc4ccccc4[nH]3)n3ncc(Br)c3n2)C1` [Example 222, N-[(1H-benzimidazol-2-yl)methyl]-8-bromo-2-[(3S)-3-methoxypyrrolidin-1-yl]pyrazolo[1,5-a][1,3,5]triazin-4-amine] were, in that order, 182 nM and 14600 nM.
On to `Cc1cc(-c2cnn3c(NCc4nc5ccccc5[nH]4)nc(N4CCN(C)CC4)nc23)ccn1` [Example 243, N-[(1H-benzimidazol-2-yl)methyl]-2-(4-methylpiperazin-1-yl)-8-(2-methylpyridin-4-yl)pyrazolo[1,5-a][1,3,5]triazin-4-amine], for which, at CDK2/CycE, the IC50 was > 20000 nM.
`CCN(C)c1nc(NCc2nc3ccccc3[nH]2)n2ncc(Br)c2n1` [Example 233, N4-(1H-benzimidazol-2-ylmethyl)-8-bromo-N2-ethyl-N2-methyl-pyrazolo[1,5-a][1,3,5]triazine-2,4-diamine]: the IC50 in assay [1] came out at 145 nM; at CDK2/CycE it was 5350 nM.
As for `CC1CN(c2nc(NCc3nc4ccccc4[nH]3)n3ncc(C(C)C)c3n2)CCO1` (racemic) [Example 11, (rac)-N-[(1H-benzimidazol-2-yl)methyl]-2-[2-methylmorpholin-4-yl]-8-(propan-2-yl)pyrazolo[1,5-a][1,3,5]triazin-4-amine], the results for the IC50 (in assay [2]; at CDK2/CycE) were 31.8 nM and 5510 nM, respectively.
